Measurements taken from patent US8084219B2, “Methods for detecting and analyzing N-glycolylneuraminic acid (Neu5Gc) in biological materials” (The Regents of the University of California, priority 2003, dated 2011).

Tests used:
[1] = system: anti-Neu5Gc antibodies in human sera; test: Inhibition of human serum anti-Neu5Gc antibody ELISA reactivity to Neu5Gc-PAA; type: binding; conditions: free sugar at 2 mM
Description: Detection of Anti-Neu5Gc and anti-α-Gal specific antibodies in human sera—Microtiter (Costar, Corning, N.Y.) plate wells were coated with Neu5Ac-polyacrylamide(PAA), Neu5Gc-PAA, or Galα1-3GalBeta1-4GlcNAc-PAA (Glycotech, Rockville, Md.) at a concentration of 500 ng/well, in 50 mM sodium carbonate-bicarbonate buffer pH 9.5, at 4° C. overnight. After washing with TBS, pH 7.5 and blocking with TBST for 2 h at RT, triplicate wells were incubated with 1:50 dilutions of serum in TBST at RT for 4 h. Wells were washed 5 times with TBS, and incubated with HRP-conjugated mouse anti-human IgA (Calbiochem, San Diego, Calif.), anti-human IgG (Jackson ImmunoResearch, West Grove, Pa.) or anti-human IgM (KPL, Gaithersburg, Md.) each diluted in TBST at 1:20,000, at RT for 1.5 hour. The IgG anti-Neu5Gc and anti-α-Gal antibodies were quantitated using a standard curve of normal human IgG coated to the wells under the same general conditions.
Anti-Neu5Gc antibodies of the IgA, IgM and IgG classes were detected in the sera of all three subjects who ingested Neu5Gc at baseline, but no increases occurred after Neu5Gc ingestion (not shown). […] Specificity was confirmed by showing that anti-Neu5Gc reactivity was blocked by chimpanzee serum in a concentration-dependent manner, but not by equivalent amounts of a Neu5Gc antibody-negative human serum (FIG. 4B). […]

Caco-2 cells = test: Feeding of human epithelial cells with Neu5Gc; type: cell-based; conditions: Caco-2, 3 mM Neu5Gc for 3 days, HPLC
Description: Feeding of Human Epithelial Cells with Neu5Gc—Caco-2 cells (human epithelial cells isolated from a primary colon carcinoma, ATCC, Manassas, Va.), were propagated in α-MEM (Gibco, Invitrogen Corporation, San Diego, Calif.) supplemented with 20% heat inactivated Fetal Calf Serum, at 37° C., 5% CO2. Prior to feeding, the cells were split and cultured for 4 days in α-MEM supplemented with 20% heat inactivated premium human serum type AB (Irvine scientific, Santa Ana, Calif.). Cells were then cultured in the presence of various concentrations of free Neu5Gc (0, 0.3, 1 and 3 mM, respectively) for 3 days at 37° C. Cells were then washed with cold PBS, scraped into 20 mM sodium phosphate pH 7.5 and sonicated. The protein extract was quantified and analysed by Western blot using the anti-Neu5Gc antibody.
Although human cells cultured in fetal calf serum express cell surface Neu5Gc in small amounts (Muchmore, et al., supra, and Oetke, et al., supra), this could represent either metabolic incorporation or non-specific absorption. Human epithelial cells were cultured in human serum until no traces of Neu5Gc derived from fetal calf serum could be detected by HPLC (typically ˜4 days). Culture was then continued for 3 days in the absence or presence of varying amounts of free Neu5Gc. […]

[2] = Human Neu5Gc ingestion study; type: in vivo
Description: Human Neu5Gc Ingestion Study—Human subjects were enlisted in the study, and were told to avoid animal foods for 2 days, all medications for 1 day, use a lanolin-free (Neu5Gc-free) shampoo for 2 days, and ingest only fruit juice on the morning of study. Subjects then drank 150 mg of porcine submaxillary mucin Sias (see above) dissolved in 100 ml water. For the next 6 h they drank a 1:1 mixture of fruit juice and soymilk (Sia free) at ˜2 ml/Kg/hr. Serum, urine and saliva samples were obtained at multiple time points. Human saliva was collected by chewing parafilm, after washing the mouth out well with water. Urine volume and pH were recorded prior to centrifugation at 1000 g for 10 min, and collection of the supernatant. All samples were stored frozen at −20° C. Head hairs (˜20) and/or facial hair trimmings (from men) were collected prior to, and on several days after Neu5Gc ingestion.
Purification and analysis of Sialic Acids and N-acylmannosamines from Human Samples—Human salivary mucin was precipitated by adjusting to pH 3 with 100 mM acetic acid, stirring at 4° C. overnight, collected at 14,000 g for 10 min, and washed twice with 1 ml of ice-cold PBS. Human hair clippings were washed in 100 mM ice-cold acetic acid for two h and crushed in a clean ceramic mortar. Bound Sias from saliva, hair or serum were released with mild acid as above, filtered through Microcon 10 filters (Millipore, Bedford, Mass.), dried down, reconstituted in water and analyzed for Sia content by DMB-HPLC.
Five ml urine aliquots were diluted 5-fold and loaded onto 10 ml columns of AG50W-X2 resin (H^+ form, BioRad, Richmond, Calif.) equilibrated in water. The run-through and washes (2×10 ml of water) were pooled and loaded onto 10 ml columns of AG1X8 resin (Formate form, BioRad) equilibrated in water. The combined run-through and washes (2×10 ml of water) were lyophilized. After washing with 5 volumes of 10 mM formic acid, free Sias were eluted with 5 volumes of 1M formic acid, diluted two-fold with water, and lyophilized.
Free Sias were purified from urine samples, and analyzed for Neu5Gc content by DMB-HPLC. Since overlapping fluorescent peaks prevented definitive identification and quantification, HPLC fractions eluting at the time expected for DMB-Neu5Gc were collected and subjected to MS, confirming an increase in ion peaks at m/z 424 and m/z 442. The sum of ion intensities of m/z 424 and m/z 442 at each time point provided an estimate of Neu5Gc quantity. Ingested Neu5Gc was rapidly absorbed and excreted into the urine (FIG. 3A). About 3-6% of the ingested dose was excreted within 4-6 h, with the peak excretion rate at 2-3 h and a return to baseline levels within 24 h.

human cells = test: Human cells fed with free Neu5Gc, incorporation into endogenous glycoproteins; type: cell-based
Description: It is therefore reasoned that the Neu5Gc in normal humans originates from exogenous sources. […] Likewise, human cells cultured in FCS incorporated Neu5Gc from the serum glycoproteins into the native glycoconjugates of the cells (Muchmore, E. A., Diaz, S, and Varki, A. (1998). Am J Phys Anthropol 107:187-198; and Tangvoranuntakul, et al., supra.

highest level of incorporation of Neu5Gc into the cells, of total Sia (Caco-2 cells) | subjects with increase of Neu5Gc in salivary mucins ([2]; 2 days after ingestion, MS) | time of decline of salivary mucin Neu5Gc to baseline levels ([2]; after ingestion) | Neu5Gc in serum samples ([2]; any time points after ingestion) | time of peak urinary excretion rate ([2]; oral 150 mg) | time of return of urinary excretion to baseline levels ([2]; oral 150 mg) | reactions to Neu5Gc ingestion ([2]; oral 150 mg, human subjects) | share of the ingested dose excreted into the urine ([2]; within 4-6 h after oral 150 mg porcine submaxillary mucin Sias, MS estimate) | level of Neu5Gc incorporated into endogenous glycoproteins (human cells) | Structure (SMILES) | inhibition of anti-Neu5Gc reactivity of human sera [1]
85% | 2 of 3 | ≤ 4 days | not detected | 2 to 3 h | ≤ 24 h | no immediate reactions | 3-6% | > 50% | O=C(CO)N[C@H]1[C@H]([C@H](O)[C@H](O)CO)OC(O)(C(=O)O)C[C@@H]1O (some centres unmarked) [Neu5Gc, N-glycolylneuraminic acid] | > 70%
– | – | – | – | – | – | – | – | – | CC(=O)N[C@H]1[C@H]([C@H](O)[C@H](O)CO)OC(O)(C(=O)O)C[C@@H]1O (some centres unmarked) [Neu5Ac, N-acetylneuraminic acid, reference compound] | not
